Patent US12527873B2, “Glycocalyx mimetic coatings” (The Regents of The University of California, priority 2019, dated 2026)

Columns and labels:
P-selectin = target: T1, P-selectin (Homo sapiens, UniProt P16109); assay: Binding to P-selectin coated surfaces (fluorescently tagged molecule, MFI); conditions: increasing concentrations; MFI normalized to vehicle (HBSS); FIG. 6
T1 sequence (P16109 42-830): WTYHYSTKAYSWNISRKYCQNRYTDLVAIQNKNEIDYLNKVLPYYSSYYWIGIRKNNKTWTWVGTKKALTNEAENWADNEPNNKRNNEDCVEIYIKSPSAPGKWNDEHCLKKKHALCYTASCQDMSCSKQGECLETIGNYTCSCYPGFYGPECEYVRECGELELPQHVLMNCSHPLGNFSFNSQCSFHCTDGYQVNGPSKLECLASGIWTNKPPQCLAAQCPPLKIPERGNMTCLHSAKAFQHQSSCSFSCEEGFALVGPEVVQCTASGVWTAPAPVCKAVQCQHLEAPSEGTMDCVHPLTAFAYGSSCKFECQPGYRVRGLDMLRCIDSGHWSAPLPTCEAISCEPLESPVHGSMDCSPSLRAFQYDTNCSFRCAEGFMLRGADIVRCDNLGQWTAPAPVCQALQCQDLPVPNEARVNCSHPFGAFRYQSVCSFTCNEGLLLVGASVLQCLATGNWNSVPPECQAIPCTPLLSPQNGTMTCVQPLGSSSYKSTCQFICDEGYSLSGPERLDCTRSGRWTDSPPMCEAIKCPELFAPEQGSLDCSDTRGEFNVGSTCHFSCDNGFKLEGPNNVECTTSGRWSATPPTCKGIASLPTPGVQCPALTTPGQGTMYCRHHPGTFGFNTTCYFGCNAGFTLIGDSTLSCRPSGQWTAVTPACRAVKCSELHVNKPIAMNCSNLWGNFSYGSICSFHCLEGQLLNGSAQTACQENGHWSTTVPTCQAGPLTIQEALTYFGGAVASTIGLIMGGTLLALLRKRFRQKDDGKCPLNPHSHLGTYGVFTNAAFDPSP
Protocol: (§1) P- and E-selectin coated surfaces were treated with fluorescently tagged DS-IkL (30 μM, empty bars) or DS (30 μM, filled bars). […] Data are represented as means±SEM. *p<0.05, **p<0.01, ***p<0.001. n=3 independent experiments.

E-selectin [1] = target: T2, E-selectin (Homo sapiens, UniProt P16581); assay: Binding to E-selectin coated surfaces (fluorescently tagged molecule, MFI); conditions: increasing concentrations; MFI normalized to vehicle (HBSS); FIG. 6
T2 sequence (P16581 22-610): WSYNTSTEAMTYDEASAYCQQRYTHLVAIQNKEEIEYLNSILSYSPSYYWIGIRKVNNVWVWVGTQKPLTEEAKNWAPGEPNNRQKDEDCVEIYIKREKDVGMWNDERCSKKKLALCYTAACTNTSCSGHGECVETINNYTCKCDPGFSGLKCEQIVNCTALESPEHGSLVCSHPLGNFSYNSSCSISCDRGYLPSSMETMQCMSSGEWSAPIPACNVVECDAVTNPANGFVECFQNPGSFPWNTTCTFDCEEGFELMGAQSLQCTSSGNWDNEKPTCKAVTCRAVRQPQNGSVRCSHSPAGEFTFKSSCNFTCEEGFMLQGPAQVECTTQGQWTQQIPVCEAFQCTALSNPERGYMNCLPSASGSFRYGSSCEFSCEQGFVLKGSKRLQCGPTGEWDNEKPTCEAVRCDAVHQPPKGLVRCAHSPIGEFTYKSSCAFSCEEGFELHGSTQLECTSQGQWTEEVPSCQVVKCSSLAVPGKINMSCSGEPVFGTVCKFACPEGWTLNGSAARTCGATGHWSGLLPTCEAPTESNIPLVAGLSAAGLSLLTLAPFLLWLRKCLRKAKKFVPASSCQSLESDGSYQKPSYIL
Protocol: as §1

[2] = tested on: stimulated human cardiac microvascular endothelial cells (HCMECs); assay: Platelet activation on stimulated HCMECs (NAP-2, PF-4 in supernatant); format: cell-based; conditions: DS-IkL 30 μM, IkL peptide 450 μM, DS 30 μM, platelets 1 hour on TNF-α/IL-1β stimulated HCMECs
From the text: Enhanced platelet activation and binding have been implicated in a multitude of chronic inflammatory diseases, including acute coronary and pulmonary syndromes (Lisman, T, Cell Tissue Res. 2018; 371(3):567-576). Activated platelets release cytokines such as platelet factor 4 (PF-4) and neutrophil activating peptide 2 (NAP-2) that can in turn activate neutrophils (Pitchford, S., D. Pan, and H. C. Welch. Curr. Opin. Hematol. 2017; 24(1):23-31). To test if treatment of inflamed endothelial cells with DS-IkL could reduce the activation of platelets as assessed by PF-4 and NAP-2 levels, platelets were allowed to interact with stimulated human cardiac microvascular endothelial cells (HCMECs, PromoCell) under standard culture conditions for 1 hour before supernatant was collected. Stimulation media was prepared by diluting to 0.4 ng/ml tumor necrosis factor alpha (TNF-α) and 0.3 ng/ml interleukin 1 beta (IL-1β) in complete endothelial growth medium MV (PromoCell).

E-selectin [3] = target: T2, E-selectin; assay: PMN binding to E-selectin coated microspheres (flow cytometry); format: cell-based; parameters: purchased R&D Systems; conditions: IkL peptide 450 μM, DS-IkL15 30 μM; p<0.05; FIG. 9
Protocol: To validate the new molecule, fluorescent carboxylate microspheres were coated with recombinant human E-selectin (R&D Systems, Minneapolis, MN) using a PolyLink coupling kit (PolySciences Inc., Warrington, PA). Functionalized microspheres were treated with HBSS^+/+, EC-SEAL (30 μM), DS-IkL10 (30 μM), DS-IkL15 (30 μM), or GMI-1070 ([…]) for one hour. During this time, human neutrophils were isolated from whole blood using an established protocol. Briefly, 6 mL of whole blood were collected into an EDTA coated tube in accordance with the UC Davis Internal Review Board under IRB assurance No. 00004557. Neutrophils were isolated using an EasyStep Direct Human Neutrophil Isolation Kit (Stem Cell Technologies, Vancouver, BC, Canada), centrifuged, and resuspended in HBSS^+/+, with 0.1% human serum albumin (HSA) at 1×10^6 cells/mL. Cells were labeled with fluorescently tagged anti-CD15 for detection. Microspheres were pelleted and resuspended in 100 uL labeled neutrophils, then incubated for 30 minutes at room temperature with rotation (150 rpm). Samples were fixed in 4% PFA and read on an Attune NxT Flow Cytometer. Data was analyzed using FlowJo flow cytometry software (San Diego, Calif.) to determine the top three performing variants. This was repeated 2-6 times for an n of 3-7. […]

binding to P-selectin coated surfaces (P-selectin) | binding to E-selectin coated surfaces (E-selectin [1]) | neutrophil adhesion to microspheres (E-selectin [3]) | Substance | platelet activation as assessed by NAP-2 ([2]; FIG. 7) | platelet activation as assessed by PF-4 ([2]; FIG. 8)
not observed in the DS group | not observed in the DS group | – | dermatan sulfate [DS] | – | –
– | – | approximately 75 % of control | Ile-(D)lys-Leu-Leu-(D)pro-Hyp-Arg [IkL peptide] | reduced | reduced
